Among the test systems are 786-0; A498; A549; CCRF-CEM; HCT-15; HT-29; MOLT-4; NCI-H522; OVCAR-5; OVCAR-8; RPMI-8226; SF-295; SF-539; SNB-75; UACC-257; UO-31; DU-145; MDA-MB-435; PC-3; NCI/ADR-RES.
Holding throughout (test): growth of human tumour cells (NCI), 48 h

The text below walks through data of ChEMBL document CHEMBL1201862, “PubChem BioAssay data set” (2004).

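Five concentrations, 48 hours, 96-well plates. The concentration for 50% growth inhibition is given as GI50.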 Calls of active or inactive are those of the source. No stated cut-off is given here; in the data, active = GI50 up to about 1.1 µM and inactive = higher.

As for `Cc1cccc(/N=C/c2ccc(N(CCC#N)S(=O)(=O)c3ccccc3)cc2C)c1`, the GI50 in the experiment with 786-0 is > 100 µM (inactive); with A498, > 100 µM (inactive); in the experiment on A549, > 100 µM (inactive); in the experiment on CCRF-CEM, 19.1 µM (inactive); in the experiment with HCT-15 it was 98.6 µM; in the experiment with HT-29 it was > 100 µM (inactive). Moreover, the GI50 was 29.2 µM (inactive) with MOLT-4; > 100 µM (inactive) in the experiment with NCI-H522; > 100 µM (inactive) with OVCAR-5; 42.9 µM (inactive) with OVCAR-8; 63.4 µM (inactive) with RPMI-8226; > 100 µM (inactive) in the experiment on SF-295. Besides, the GI50 was > 100 µM (inactive) in the experiment on SF-539, 67 µM (inactive) with SNB-75, > 100 µM (inactive) in the experiment on UACC-257 and 13.3 µM (inactive) in the experiment with UO-31.
`O=C1C(Cl)=C(NCCF)C(=O)c2ncccc21`: the GI50 was 1.82 µM (inactive) with 786-0; 4.12 µM (inactive) with A498; 1.89 µM (inactive) with A549; 0.235 µM (active) in the experiment with CCRF-CEM; 1.6 µM (inactive) in the experiment on DU-145; 2.08 µM in the experiment with HCT-15. Moreover, the GI50 in the experiment with HT-29 is 2.97 µM (inactive); in the experiment on MDA-MB-435, 0.212 µM (active); in the experiment on MOLT-4, 1.55 µM (inactive); in the experiment with OVCAR-5, 1.88 µM (inactive); with OVCAR-8, 2.03 µM (inactive); in the experiment with PC-3, 1.58 µM (inactive). Further, the GI50 in the experiment with RPMI-8226 was 7.08 µM (inactive); in the experiment with SF-295, 1.75 µM (inactive); with SF-539, 1.81 µM (inactive); in the experiment with SNB-75, 1.29 µM (inactive); in the experiment with UACC-257 it was 1.62 µM (inactive); in the experiment with UO-31, 1.32 µM (inactive).
For `CC1CN=C(N(Cc2ccccc2)C(=O)Nc2ccc(Cl)c(Cl)c2)S1` (centres undefined), the GI50 was 30.5 µM (inactive) with 786-0; 35.7 µM (inactive) in the experiment on A498; 36.9 µM (inactive) with A549; > 10 µM (inactive) in the experiment with CCRF-CEM; 42.7 µM (inactive) in the experiment on DU-145; 15.7 µM in the experiment with HCT-15. The GI50 in the experiment with HT-29 is 30.1 µM (inactive); in the experiment with MOLT-4 it was > 10 µM (inactive); with NCI/ADR-RES, 21.4 µM (inactive); in the experiment with OVCAR-5, 29.2 µM (inactive); in the experiment on OVCAR-8, 49.3 µM (inactive); in the experiment on PC-3, 31.4 µM (inactive). Besides, the GI50 is 33.7 µM (inactive) in the experiment with RPMI-8226; > 10 µM (inactive) in the experiment on SF-295; 33.3 µM (inactive) with SF-539; 35.6 µM (inactive) with SNB-75; 32.5 µM (inactive) in the experiment on UACC-257; 25.8 µM (inactive) with UO-31.
`CC(O)c1nc(C#N)c(N)o1` (centres undefined): the GI50 in the experiment with 786-0, in the experiment with A498, in the experiment on A549, in the experiment on CCRF-CEM, in the experiment with DU-145 and in the experiment with HT-29 was > 100 µM (inactive) each time. The GI50 in the experiment with MOLT-4, in the experiment with NCI-H522, in the experiment with NCI/ADR-RES, in the experiment with OVCAR-5, with OVCAR-8 and with PC-3 was > 100 µM (inactive) each time. The GI50 in the experiment on RPMI-8226, with SF-295, in the experiment with SF-539, in the experiment on SNB-75, with UACC-257 and with UO-31 was > 100 µM (inactive) in each case.
`COC(=O)c1c(O)c2c(c3c1OC(C)(C)CC3)OC(C)(C)CC2`: the GI50 in the experiment with 786-0 was 16.8 µM (inactive); in the experiment on A498, 18.7 µM (inactive); with A549, 20.5 µM (inactive); with CCRF-CEM it was 23 µM (inactive); with DU-145, 24.5 µM (inactive); in the experiment on HCT-15, 21.2 µM. The GI50 in the experiment on HT-29 was 16.7 µM (inactive); with MOLT-4, 22.7 µM (inactive); with NCI-H522, 15.8 µM (inactive); with NCI/ADR-RES, 22.1 µM (inactive); with OVCAR-5, 18.4 µM (inactive); in the experiment with OVCAR-8, 17.6 µM (inactive). Moreover, the GI50 is 17 µM (inactive) in the experiment on PC-3; 17 µM (inactive) in the experiment with SF-295; 18 µM (inactive) in the experiment with SF-539; > 10 µM (inactive) in the experiment with SNB-75; 20.4 µM (inactive) in the experiment with UACC-257; 18.8 µM (inactive) in the experiment on UO-31.
For the molecule `N#CC(c1cc(Cl)ncn1)c1nc2ccccc2s1` (centres undefined), the GI50 in the experiment with 786-0 was 3.77 µM (inactive); in the experiment on A498, 21.8 µM (inactive); in the experiment with A549 it was 27.8 µM (inactive); in the experiment on DU-145 it was 5.56 µM (inactive); in the experiment with HCT-15 it was 3.74 µM; in the experiment with HT-29, 10.3 µM (inactive). Moreover, the GI50 in the experiment with MDA-MB-435 was 18.1 µM (inactive); in the experiment with MOLT-4, 3.42 µM (inactive); in the experiment with NCI-H522, 2.07 µM (inactive); in the experiment on NCI/ADR-RES, 3.29 µM (inactive); in the experiment on OVCAR-5, 18.1 µM (inactive); in the experiment on OVCAR-8 it was 3.85 µM (inactive). Also, the GI50 with RPMI-8226 was 2.49 µM (inactive); in the experiment on SF-295, 15.6 µM (inactive); in the experiment on SF-539 it was 5.42 µM (inactive); with SNB-75, 13.6 µM (inactive); with UACC-257 it was 10.5 µM (inactive); in the experiment on UO-31, 16.6 µM (inactive).
For the molecule `CC(=O)OC[C@@H]1[C@H]2CC(=O)O[C@H]2C[C@H]1OC(C)=O`, the GI50 in the experiment on 786-0 was > 100 µM (inactive); in the experiment on A498, > 100 µM (inactive); in the experiment with A549, > 100 µM (inactive); in the experiment on CCRF-CEM, > 100 µM (inactive); with HCT-15, above 100 µM; in the experiment on HT-29 it was > 100 µM (inactive). For the same molecule, the GI50 in the experiment with MOLT-4, with NCI-H522, in the experiment on OVCAR-5, with OVCAR-8, in the experiment on RPMI-8226 and in the experiment with SF-295 was > 100 µM (inactive) each time. For the same molecule, the GI50 in the experiment with SF-539, in the experiment with SNB-75, in the experiment with UACC-257 and with UO-31 was > 100 µM (inactive) each time.
For the molecule `CC1(C)CNCC(C)(OCc2ccccc2)C(=O)NC(C)(C)CNCC(C)(OCc2ccccc2)C(=O)N1` (centres undefined), the GI50 was > 10 µM (inactive) with 786-0; > 10 µM (inactive) with A498; > 10 µM (inactive) in the experiment with A549; > 10 µM (inactive) with CCRF-CEM; > 10 µM (inactive) in the experiment with DU-145; above 10 µM in the experiment with HCT-15. Further, the GI50 with MDA-MB-435, in the experiment on MOLT-4, in the experiment on OVCAR-5, in the experiment with OVCAR-8, in the experiment with PC-3 and in the experiment on SF-295 was > 10 µM (inactive) throughout. The GI50 was > 10 µM (inactive) in the experiment with SF-539, 6.27 µM (inactive) in the experiment with SNB-75, > 10 µM (inactive) in the experiment on UACC-257 and 6 µM (inactive) in the experiment with UO-31.
With `NC(=O)c1ccc(/N=N/O)nc1`, the GI50 was > 100 µM (inactive) with 786-0; > 100 µM (inactive) with A498; > 100 µM (inactive) in the experiment with A549; > 100 µM (inactive) with CCRF-CEM; > 100 µM (inactive) with DU-145; above 100 µM with HCT-15. The GI50 in the experiment on HT-29, with MOLT-4, with NCI-H522, in the experiment on NCI/ADR-RES, with OVCAR-5 and in the experiment with OVCAR-8 was > 100 µM (inactive) each time. Also, the GI50 with PC-3, in the experiment on SF-295, in the experiment with SF-539, in the experiment with SNB-75, with UACC-257 and in the experiment on UO-31 was > 100 µM (inactive) in each case.
With `COc1cccc(/C=C2\CCCCCC2=O)c1`, the GI50 was > 100 µM (inactive) in the experiment on 786-0; > 100 µM (inactive) with A498; > 100 µM (inactive) in the experiment with A549; > 100 µM (inactive) in the experiment on DU-145; above 100 µM in the experiment on HCT-15; > 100 µM (inactive) in the experiment on HT-29. For the same molecule, the GI50 was 48.1 µM (inactive) with MDA-MB-435; 71.9 µM (inactive) with MOLT-4; > 100 µM (inactive) in the experiment with NCI-H522; > 100 µM (inactive) in the experiment with OVCAR-5; > 100 µM (inactive) with PC-3; 31 µM (inactive) in the experiment with RPMI-8226. For the same molecule, the GI50 was > 100 µM (inactive) with SF-295, 62.5 µM (inactive) in the experiment on SNB-75, > 100 µM (inactive) in the experiment with UACC-257 and 81.5 µM (inactive) in the experiment on UO-31.
For the molecule `COc1ccc2c(c1)c(=O)c1c(NCCN(C)C)ccc3nnn2c31`, the GI50 is 1.71 µM (inactive) with 786-0; 9.51 µM (inactive) in the experiment with A498; 2.21 µM (inactive) in the experiment with A549; 0.918 µM (active) in the experiment with CCRF-CEM; 3.82 µM in the experiment with HCT-15; 1.57 µM (inactive) in the experiment with HT-29. For the same molecule, the GI50 in the experiment on MOLT-4 was 0.321 µM (active); in the experiment on NCI-H522, 2.7 µM (inactive); in the experiment with OVCAR-5, 4.06 µM (inactive); with OVCAR-8 it was 1.04 µM (active); in the experiment on RPMI-8226 it was 1.65 µM (inactive); with SF-295, 2.11 µM (inactive). For the same molecule, the GI50 in the experiment with SF-539 is 4.04 µM (inactive); in the experiment on SNB-75 it was 7.1 µM (inactive); in the experiment with UACC-257 it was 4.69 µM (inactive); in the experiment with UO-31, 2.17 µM (inactive).
Turning to `CC1=C2CC3=C(C)C(=O)O[C@H]3C[C@@H](C)[C@@H]2CC1` [AMERICANOLIDE D], the GI50 with 786-0 is > 100 µM (inactive); in the experiment on A498, > 100 µM (inactive); in the experiment on CCRF-CEM, 76.2 µM (inactive); in the experiment with HCT-15, above 100 µM; in the experiment on HT-29, 85.9 µM (inactive); with MDA-MB-435, > 100 µM (inactive). Further, the GI50 was 51.9 µM (inactive) in the experiment with MOLT-4; > 100 µM (inactive) with NCI/ADR-RES; > 100 µM (inactive) in the experiment with OVCAR-5; > 100 µM (inactive) in the experiment with OVCAR-8; > 100 µM (inactive) in the experiment on PC-3; > 100 µM (inactive) in the experiment with RPMI-8226. The GI50 in the experiment with SF-295 was > 100 µM (inactive); with SNB-75, 97.5 µM (inactive); in the experiment with UACC-257 it was > 100 µM (inactive); in the experiment with UO-31 it was > 100 µM (inactive).
